Data: ChEMBL document CHEMBL1137286, “Vialinin B, a novel potent inhibitor of TNF-alpha production, isolated from an edible mushroom, Thelephora vialis” (Bioorg Med Chem Lett, 2006)

Tested on: RBL-2H3
Assay: Inhibition of DNP7-BSA antigen-induced TNFalpha release in rat RBL-2H3 cells
Format: functional, cell-based

## O=C(Cc1ccccc1)Oc1c(-c2ccc(O)cc2)c(O)c2oc3cc(O)c(O)cc3c2c1OC(=O)Cc1ccccc1 [VIALININ B]
  IC50: 0.02 nM

## Oc1ccc(-c2c(O)c(O)c3c(oc4cc(O)c(O)cc43)c2O)cc1 [CYCLOLEUCOMELONE]
  IC50: 3500 nM

## O=C(Cc1ccccc1)Oc1c(-c2ccc(O)cc2)c(OC(=O)Cc2ccccc2)c2oc3cc(O)c(O)cc3c2c1OC(=O)Cc1ccccc1 [GANBAJUNIN B]
  IC50: 5000 nM

## C=CC[C@@H]1/C=C(\C)C[C@H](C)C[C@H](OC)[C@H]2O[C@@](O)(C(=O)C(=O)N3CCCC[C@H]3C(=O)O[C@H](/C(C)=C/[C@@H]3CC[C@@H](O)[C@H](OC)C3)[C@H](C)[C@@H](O)CC1=O)[C@H](C)C[C@@H]2OC [TACROLIMUS ANHYDROUS]
  IC50: 0.25 nM
